Measurements from publication PMC10877733, “Discovery and Characterization of VU0542270, the First Selective Inhibitor of Vascular Kir6.1/SUR2B KATP Channels” (Molecular Pharmacology, 2024).

Assays:
[1] = tested on: Kir6.1- or Kir6.2-containing channels in complex with either SUR2A or SUR2B; assay: Thallium flux, Kir6.1 or Kir6.2 co-expressed with SUR2A or SUR2B in transfected HEK-293 cells; assay type: cell-based; conditions: 3 µM, Fig. 4D
Text: The pcDNA3.1-SUR2B plasmid was generously provided by Dr. Colin Nichols (Washington University). The pcDNA5/TO-Kir6.1 plasmid was synthesized by GenScript. Stably transfected tetracycline-regulated expression human embryonic kidney-293 (T-Rex-HEK293) cells expressing both plasmids were generated by cotransfecting cells with Lipofectamine LTX followed by antibiotic selection and clonal selection using the thallium flux assay described below. Monoclonal lines expressing robust pinacidil-activated thallium flux were selected for high KATP channel activity. T-Rex-HEK293 cells expressing Kir6.2/SUR1 were created as described previously ([Raphemot et al., 2014]). The cell culture media contained Dulbecco’s modified Eagle’s medium (Gibco, 11965-092) supplied with heat-inactivated FBS (bio-techne, Minneapolis, MN S11150H,10%), Blasticidine HCl (Gibco, A11139-03, 10 ug/mL), Penicillin-Streptomycin (Gibco, 15140-122, 2 mM), G418 Sulfate (CORNING, Corning, NY, 30-234-CR, 1 mg/mL), and Hygromycin B (Invitrogen, Carlsbad, CA, 10687-010, 250 ug/mL). […]
Quantitative thallium flux assays of Kir6.1/SUR2B activity were performed essentially as described previously for Kir6.2/SUR1 ([Raphemot et al., 2014]; [Kharade et al., 2019]). […] Dye-loaded cells were washed with assay buffer and transferred to a Panoptic Kinetic Imaging Plate Reader (Wavefront Bioscience, Franklin, TN). […]

[2] = Intrinsic clearance in liver microsomes, mouse; assay type: in vitro ADME
Experimental: The in vitro intrinsic clearance (CLint) of VU0542270 was investigated in commercially obtained hepatic microsomes from rat, mouse, and human donors using the substrate depletion (i.e., loss-of-parent versus time, or t1/2 method) approach with analyte detection via LC-MS/MS. For each species, mean per cent parent remaining values at each time point were calculated from replicates raw data (analyte:IS peak area ratios) and used to determine in vitro t1/2 and CLint.
Experiments were carried out using a robot-assisted liquid handling system (TECAN model Evo 200). VU0542270 was incubated (1 µM final concentration) in buffer (100 mM potassium phosphate, pH 7.4, with 3 mM MgCl2) containing hepatic microsomes (0.5 mg/mL final concentration) from multiple species, discretely, at 37°C under constant orbital shaking. After 5 minutes (preincubation), reactions were initiated by the addition of NADPH (1 mM final concentration). At selected time intervals (0, 3, 7, 15, 25, and 45 minutes) post addition of NADPH, aliquots (50 µL) were taken and placed into a 96-shallow-well plate containing ice-cold acetonitrile (150 µL) with carbamazepine (IS, 50 nM). The plates were then centrifuged (3000 rcf at 4°C) for 10 minutes. […]
Predicted hepatic clearance (CLhep) was calculated using the following equation: [drawing 4] […]

Predicted CLhep,u (mouse) ([2]; corrected to plasma unbound fraction): 27 mL/min per kg
Predicted CLhep (mouse) ([2]; from microsomal CLint): 88 mL/min per kg
Structure (SMILES): Cc1nc(-c2cccs2)sc1CNC(=O)Nc1cccs1 [VU0542270]
inhibition of Kir6.1- or Kir6.2-containing channels with SUR2A or SUR2B [1]: inhibits
